Measured values taken from ChEMBL document CHEMBL4024702, “Covalent Modifiers: A Chemical Perspective on the Reactivity of α,β-Unsaturated Carbonyls with Thiols via Hetero-Michael Addition Reactions” (J Med Chem, 2017).
Each block holds one compound with its values, some of them ahead of it.

How the values were obtained:
[1] = Glutathione reactivity of the compound in DMSO/HEPES buffer assessed as second order rate constant for adduct formation at pH 7.4 by spectroscopic analysis
[2] = Thiol reactivity of the compound in PBS buffer assessed as adduct formation at 100 to 200 uM at pH 7.4 by UV-visible spectroscopic analysis
[3] = system: Tetrahymena pyriformis; test: Toxicity in Tetrahymena pyriformis assessed as growth inhibition after 48 hrs
[4] = Glutathione reactivity of the compound in DMSO and phosphate buffer assessed as second order rate constant for adduct formation
[5] = biological target: Sodium-dependent dopamine transporter (Rattus norvegicus, UniProt P23977); test: Inhibition of [3H]dopamine uptake at DAT in rat brain striatal synaptosomes by liquid scintillation counting analysis; assay type: subcellular, Striatum
Sequence of Sodium-dependent dopamine transporter (P23977 whole entry): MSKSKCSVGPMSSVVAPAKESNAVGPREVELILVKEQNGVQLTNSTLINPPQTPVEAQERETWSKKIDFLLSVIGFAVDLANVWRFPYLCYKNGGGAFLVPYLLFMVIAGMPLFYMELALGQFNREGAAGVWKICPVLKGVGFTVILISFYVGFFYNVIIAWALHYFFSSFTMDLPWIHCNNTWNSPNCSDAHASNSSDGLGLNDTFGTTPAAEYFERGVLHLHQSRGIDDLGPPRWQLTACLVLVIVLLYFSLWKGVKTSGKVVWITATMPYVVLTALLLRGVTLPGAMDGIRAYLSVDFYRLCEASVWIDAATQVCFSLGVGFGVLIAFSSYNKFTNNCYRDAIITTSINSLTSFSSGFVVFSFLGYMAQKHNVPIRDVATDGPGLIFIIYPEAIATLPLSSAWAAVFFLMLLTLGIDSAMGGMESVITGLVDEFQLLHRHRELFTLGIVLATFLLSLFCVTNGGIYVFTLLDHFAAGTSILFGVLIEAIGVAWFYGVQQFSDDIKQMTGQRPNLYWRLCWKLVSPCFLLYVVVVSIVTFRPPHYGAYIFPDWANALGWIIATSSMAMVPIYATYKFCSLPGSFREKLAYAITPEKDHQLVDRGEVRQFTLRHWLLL

[6] = Cysteine reactivity of the compound assessed as second order rate constant by 1H NMR analysis
[7] = Inhibition of wild-type HCV genotype 1b protease using 5-FAM/QXL 520 as substrate after 60 to 90 mins by FRET-based assay; set-up: species or system Hepatitis C virus subtype 1b
[8] = Butanethiol reactivity of the compound in CD3OD/deuterio phosphate buffer assessed as equilibrium constant for adduct formation at pH 7.4 by […] analysis
[9] = Glutathione reactivity of the compound in CD3OD/deuterio phosphate buffer assessed as equilibrium constant for adduct formation at pH 7.4 by […] analysis
[10] = Cysteine reactivity of the compound in CD3OD/deuterio phosphate buffer assessed as equilibrium constant for adduct formation at pH 7.4 by […] analysis
[11] = Beta-mercaptoethanol reactivity of the compound in CD3OD/deuterio phosphate buffer assessed as equilibrium constant for adduct formation at pH 7.4 by […] analysis
[12] = Methanethiol reactivity of the compound in CD3OD/deuterio phosphate buffer assessed as equilibrium constant for adduct formation at pH 7.4 by […] analysis
[13] = Cysteine reactivity of the compound assessed as adduct formation after 2 mins by mass spectrometric analysis
[14] = DTT reactivity of the compound in acetonitrile to tris-HCL buffer at pH 7.4 by NMR spectroscopic analysis
[15] = Glutathione reactivity of the compound in acetonitrile to tris-HCL buffer at pH 7.4 by NMR spectroscopic analysis
[16] = biological target: Exportin-1 (Homo sapiens, UniProt O14980); test: Inhibition of CRM1-mediated nucleocytoplasmic transport in human HeLa cells after 90 mins by immunofluorescence assay; assay type: cell-based
Sequence of Exportin-1 (O14980 whole entry): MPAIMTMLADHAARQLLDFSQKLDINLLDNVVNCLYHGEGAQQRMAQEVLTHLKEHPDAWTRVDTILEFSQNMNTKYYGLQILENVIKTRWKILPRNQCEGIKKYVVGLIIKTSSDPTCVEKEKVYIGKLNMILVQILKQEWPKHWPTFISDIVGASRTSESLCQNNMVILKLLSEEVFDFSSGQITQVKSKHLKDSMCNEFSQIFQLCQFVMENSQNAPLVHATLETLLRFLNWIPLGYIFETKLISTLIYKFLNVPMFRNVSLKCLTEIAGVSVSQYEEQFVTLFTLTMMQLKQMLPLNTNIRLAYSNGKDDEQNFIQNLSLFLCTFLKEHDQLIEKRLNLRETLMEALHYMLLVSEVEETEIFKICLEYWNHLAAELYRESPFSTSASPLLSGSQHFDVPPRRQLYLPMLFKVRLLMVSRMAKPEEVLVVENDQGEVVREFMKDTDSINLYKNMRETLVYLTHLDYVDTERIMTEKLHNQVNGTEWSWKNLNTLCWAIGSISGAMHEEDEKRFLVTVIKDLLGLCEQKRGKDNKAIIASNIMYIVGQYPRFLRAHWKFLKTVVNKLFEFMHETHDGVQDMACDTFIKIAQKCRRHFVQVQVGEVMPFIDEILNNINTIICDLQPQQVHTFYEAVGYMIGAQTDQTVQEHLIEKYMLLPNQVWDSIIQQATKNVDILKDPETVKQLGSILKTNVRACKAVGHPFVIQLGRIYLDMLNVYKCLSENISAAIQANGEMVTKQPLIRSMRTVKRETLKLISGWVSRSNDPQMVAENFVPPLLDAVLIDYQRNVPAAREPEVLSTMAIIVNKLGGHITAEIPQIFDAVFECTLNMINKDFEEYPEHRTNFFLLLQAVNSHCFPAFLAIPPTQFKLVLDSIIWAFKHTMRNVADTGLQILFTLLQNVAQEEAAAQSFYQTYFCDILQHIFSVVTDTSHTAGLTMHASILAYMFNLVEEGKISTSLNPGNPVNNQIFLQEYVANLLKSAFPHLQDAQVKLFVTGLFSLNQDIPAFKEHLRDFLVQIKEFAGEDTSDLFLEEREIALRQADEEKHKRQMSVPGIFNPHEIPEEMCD

[17] = Glutathione reactivity of the compound assessed as second order rate constant by 1H NMR analysis
[18] = biological target: Adenosylhomocysteinase (Homo sapiens) (UniProt P23526); test: Ratio of Kinact to Ki for S-adenosyl-L-homocysteine hydrolase (unknown origin)
Sequence of Adenosylhomocysteinase (Homo sapiens) (P23526 2-432 limits assumed): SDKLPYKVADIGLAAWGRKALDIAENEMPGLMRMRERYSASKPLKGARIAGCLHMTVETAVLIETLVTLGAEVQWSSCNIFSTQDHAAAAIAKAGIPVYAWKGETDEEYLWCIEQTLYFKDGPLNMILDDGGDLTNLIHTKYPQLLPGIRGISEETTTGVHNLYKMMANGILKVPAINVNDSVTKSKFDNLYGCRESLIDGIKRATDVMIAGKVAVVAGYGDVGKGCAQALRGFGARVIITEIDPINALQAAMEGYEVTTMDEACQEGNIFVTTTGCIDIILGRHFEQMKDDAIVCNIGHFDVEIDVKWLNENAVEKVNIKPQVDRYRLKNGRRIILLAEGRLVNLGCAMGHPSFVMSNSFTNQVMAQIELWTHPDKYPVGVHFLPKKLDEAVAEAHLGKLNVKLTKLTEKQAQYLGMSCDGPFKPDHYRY

[19] = biological target: Adenosylhomocysteinase (Homo sapiens) (UniProt P23526); test: Inhibition of S-adenosyl-L-homocysteine hydrolase (unknown origin)
[20] = Glutathione reactivity of the compound assessed as adduct formation after 2 mins by mass spectrometric analysis
[21] = system: Proto-oncogene tyrosine-protein kinase Src (Gallus gallus), P00523 [S345C]; test: Ratio of Kinact to Ki for chicken c-Src S345C mutant (251 to 533 residues) expressed in Escherichia coli
[22] = biological target: Proto-oncogene tyrosine-protein kinase Src (Gallus gallus, UniProt P00523, S345C); test: Inhibition of chicken c-Src S345C mutant (251 to 533 residues) expressed in Escherichia coli by fluorescence assay
[23] = Thiol reactivity of the compound assessed as equilibrium constant for adduct formation
[24] = Lysine reactivity of the compound in aqueous buffer assessed as drug recovery after 6 days at pH 7.4
[25] = biological target: T1, Papain (Carica papaya) (UniProt P00784); test: Irreversible inhibition of Carica papaya papain assessed as ratio of Kinact to Ki
T1 sequence (whole entry): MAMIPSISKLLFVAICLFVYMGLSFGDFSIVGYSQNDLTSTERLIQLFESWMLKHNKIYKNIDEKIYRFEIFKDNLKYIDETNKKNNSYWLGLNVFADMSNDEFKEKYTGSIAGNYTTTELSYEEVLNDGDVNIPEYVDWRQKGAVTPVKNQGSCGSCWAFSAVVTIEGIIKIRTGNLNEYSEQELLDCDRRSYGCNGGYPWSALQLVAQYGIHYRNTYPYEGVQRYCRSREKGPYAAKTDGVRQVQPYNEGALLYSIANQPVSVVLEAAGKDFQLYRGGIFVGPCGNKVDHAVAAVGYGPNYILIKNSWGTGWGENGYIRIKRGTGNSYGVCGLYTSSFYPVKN

[26] = Thiol reactivity of the compound in PBS buffer assessed as pseudo-first order rate constant for adduct formation in presence of 4-nitrobenzenethiol at pH 7.4 by stop-flow spectrophotometric analysis

Structure (SMILES): CCN(CC)c1ccc2cc(C(CC(C)=O)SC[C@H](NC(=O)CC[C@H](N)C(=O)O)C(=O)NCC(=O)O)c(=O)oc2c1 (some centres undefined)
K [1]: 0.007 M⁻¹ s⁻¹

Kd [2]: 32800 µM
Structure (SMILES): N#CC(C(N)=O)C(SCCO)c1c[nH]cn1 (centres undefined)

Structure (SMILES): C/C=C(\C)C=O [2-methyl-(E)-2-butenal]
EC50 [3]: 1380 µM
K [4]: 0.474 M⁻¹ s⁻¹

Structure (SMILES): C=CC(C)=O
IC50 [5]: 331 µM

IC50 [5]: 46.8 µM
Structure (SMILES): CCN1C(=O)C=CC1=O [N-ETHYLMALEIMIDE]
K [6]: 3750 M⁻¹ s⁻¹

IC50 [7]: 0.004 µM
Structure (SMILES): C=CC(=O)N[C@H](C)C(=O)N1C[C@H](Oc2nccc3ccc(Br)cc23)C[C@H]1C(=O)N[C@]1(C(=O)CS(=O)(=O)C2CC2)C[C@H]1C=C

Structure (SMILES): CCCCC[C@H](O)/C=C/[C@H]1C=CC(=O)[C@@H]1CCCCCCC(=O)OC
Ke [8]: 6.1 to 10.8 M⁻¹
Ke [9]: 6.1 to 10.8 M⁻¹
Ke [10]: 6.1 to 10.8 M⁻¹
Ke [11]: 6.1 to 10.8 M⁻¹
Ke [12]: 6.1 to 10.8 M⁻¹

Kd [2]: 6200 µM
Structure (SMILES): N#CC(C(N)=O)C(SCCO)c1cccc2[nH]ccc12 (centres undefined)

Structure (SMILES): CCCCC[C@@H](O)C/C=C1/C(=O)C[C@H](O)[C@@H]1C/C=C\CCCC(=O)O
Drug metabolism [13]: 60%

Structure (SMILES): O=C(/C=C/c1ccccc1O)/C=C/c1ccccc1O
DTT second-order rate constant [14]: 2.5 M⁻¹ s⁻¹
Activity [15]: 5 M⁻¹ s⁻¹

IC50 [16]: 0.01 µM
Structure (SMILES): C/C=C(\C)C[C@H](C)[C@@H](O)[C@H](C)C(=O)[C@H](C)/C=C(C)/C=C/C[C@@H](C)/C=C(\C=C\[C@H]1CC=CC(=O)O1)CC

Structure (SMILES): C=C1CCOC1=O
K [17]: 1.3 ×10⁻⁴ /M/s

Ratio [18]: 152 M⁻¹ s⁻¹
K [19]: 84.9 M⁻¹ s⁻¹
Structure (SMILES): COC1=C(OC)/C(=C/Cn2cnc3c(N)ncnc32)OC1=O

Structure (SMILES): CCCCC[C@@H](O)C/C=C1/C(=O)C=C[C@@H]1C/C=C\CCCC(=O)O
Drug metabolism [20]: 70%
Drug metabolism [13]: 85%

Kd [2]: 1300 µM
Structure (SMILES): N#CC(C(N)=O)C(SCCO)c1ccc(-n2ccnc2)cc1 (centres undefined)

Ratio [21]: 0.085 M⁻¹ s⁻¹
IC50 [22]: 0.24 µM
Structure (SMILES): CN(C)C/C=C/C(=O)Nc1ccc2ncnc(Nc3cccc(Br)c3)c2c1

Structure (SMILES): CCC(=C/[C@H](C)C/C=C/C(C)=C/[C@@H](C)C(=O)[C@@H](C)[C@H](O)[C@@H](C)C/C(C)=C/C(=O)O)/C=C/[C@@H]1OC(=O)C=C[C@@H]1C [LEPTOMYCIN B]
IC50 [16]: 0.001 µM

Structure (SMILES): O=C1C=CCC1
Ke [23]: 3900 M⁻¹
K [4]: 25.6 M⁻¹ s⁻¹

Structure (SMILES): O=C(/C=C/c1ccccc1)/C=C/c1ccccc1
DTT second-order rate constant [14]: 0.42 M⁻¹ s⁻¹
Activity [15]: 0.15 M⁻¹ s⁻¹

Structure (SMILES): C=C[C@@]12COC(=O)C(=C)[C@@H]1[C@H]1OC(=O)C(=C)[C@@H]1[C@@H](O)C2
K [6]: 200 M⁻¹ s⁻¹
Drug recovery [24]: 75%

Ratio [21]: 1.03 M⁻¹ s⁻¹
IC50 [22]: 0.002 µM
Structure (SMILES): C=CS(=O)(=O)Nc1ccc2ncnc(Nc3cccc(Br)c3)c2c1

Kd [2]: 11900 µM
Structure (SMILES): N#CC(C(N)=O)C(SCCO)c1ccsc1 (centres undefined)

Structure (SMILES): C=CC=O [ACROLEIN]
IC50 [5]: 52.5 µM

Ratio [25]: 1.2 M⁻¹ s⁻¹
Structure (SMILES): COC(=O)/C=C/CNC(=O)c1cc(-c2ccc(C)cc2)no1

Structure (SMILES): CCN(CC)c1ccc2cc(C(CC(=O)OC)SC[C@H](NC(=O)CC[C@H](N)C(=O)O)C(=O)NCC(=O)O)c(=O)oc2c1 (some centres undefined)
K [1]: 0 M⁻¹ s⁻¹

Structure (SMILES): C#CC(=O)OCC [PROPYNOIC ACID ETHYL ESTER]
EC50 [3]: 17 µM
K [4]: 105 M⁻¹ s⁻¹

Structure (SMILES): CC1C(=O)CCC1Sc1ccccc1 (centres undefined)
Ke [23]: 1.28 M⁻¹

Structure (SMILES): O=[N+]([O-])c1ccc(Sc2cc(O)ccc2O)cc1
K [26]: 1.5 ×10³ /s

Ratio [25]: 0.4 M⁻¹ s⁻¹
Structure (SMILES): COC(=O)/C=C/CNC(=O)[C@H](CNC(C)=O)Cc1ccccc1
